Test results as given in US7022716B2, “Cyclic amine phenyl beta-3 adrenergic receptor agonists” (Wyeth, priority 2000, dated 2006).

Legend:
[1] = biological target: T1, human β3 adrenergic receptor (Homo sapiens, UniProt P13945); assay: cAMP (SPA) response in CHO cells transfected with human β3 adrenergic receptor; assay type: cell-based; design: key: fraction of maximal isoproterenol (10^-5 M) response; conditions: maximal response relative to maximal response of isoproterenol at 10^-5 M
T1 construct: Full length β3 AR clones (402 amino acids) containing the last 6 amino acids of hβ3-AR are prepared; expressed in transfected cells; host or cells: CHO (Chinese hamster ovary) cells
T1 sequence (P13945 whole entry): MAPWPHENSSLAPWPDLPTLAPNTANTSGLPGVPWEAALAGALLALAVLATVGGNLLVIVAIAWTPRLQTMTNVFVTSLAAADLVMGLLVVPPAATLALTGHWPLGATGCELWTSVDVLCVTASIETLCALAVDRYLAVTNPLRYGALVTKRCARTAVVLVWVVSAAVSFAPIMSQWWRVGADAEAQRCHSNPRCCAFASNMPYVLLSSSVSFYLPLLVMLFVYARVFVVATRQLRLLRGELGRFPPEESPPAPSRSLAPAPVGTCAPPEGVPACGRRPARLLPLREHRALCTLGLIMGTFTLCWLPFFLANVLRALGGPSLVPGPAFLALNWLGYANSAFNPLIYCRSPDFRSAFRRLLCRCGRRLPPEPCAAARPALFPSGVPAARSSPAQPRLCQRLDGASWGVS
Method in brief: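 Reactions were stopped with 0.2N HCl and neutralised, and cAMP was measured by SPA. Activity is expressed as percent of the maximal 10^−5 M isoproterenol response.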

Structure (SMILES) | IA(β3) [1] | melting point
CCOC(=O)CCc1ccc(N2CCC(NC[C@H](O)c3ccc(O)c(NS(C)(=O)=O)c3)CC2)cc1 [Example 187, 3-(4-{4-[(2R)-2-Hydroxy-2-(4-hydroxy-3-methanesulfonylamino-phenyl)-ethylamino]-piperidin-1-yl}-phenyl)-propionic acid ethyl ester] | 1.03 | 76 to 78 °C
CS(=O)(=O)Nc1cc([C@@H](O)CNC2CCN(c3ccc(-c4nnn(CC(=O)O)n4)cc3)CC2)ccc1O [Example 100, [5-(4-{4-[((2R)-2-Hydroxy-2-{4-hydroxy-3-[(methylsulfonyl)amino]phenyl}ethyl)amino]-1-piperidinyl}phenyl)-2H-tetraazol-2-yl]acetic acid] | 0.9 | > 240 °C (dec.)
CS(=O)(=O)Nc1cc([C@@H](O)CNC2CCN(c3ccc(C(=O)N[C@H]4CCCCNC4=O)cc3)CC2)ccc1O [Example 212] | 1.1 | 135 to 137 °C
CCOC(=O)[C@@H](NC(=O)c1ccc(N2CCC(NC[C@H](O)c3ccc(O)c(NS(C)(=O)=O)c3)CC2)cc1)C(C)C [Example 202, (2S)-2-(4-{4-[(2R)-2-Hydroxy-2-(4-hydroxy-3-methanesulfonylamino-phenyl)-ethylamino]-piperidin-1-yl}-benzoylamino)-3-methyl-butyric acid ethyl ester] | 1.2 | > 85 °C (dec.)
O=C(Nc1ccc(N2CCC(NC[C@H](O)COc3cccc4[nH]c(=O)[nH]c34)CC2)cc1)c1ccc2c(c1)OCO2 [Example 390, N-{4-[4-({(2S)-2-Hydroxy-3-[(2-oxo-2,3-dihydro-1H-benzimidazol-4-yl)oxy]propyl}-amino)-1-piperidinyl]phenyl}-1,3-benzodioxole-5-carboxamide] | 0.82 | 160 to 169 °C
CS(=O)(=O)Nc1cc(OC[C@@H](O)CNC2CCN(c3ccc(CC4SC(=O)NC4=O)cc3)CC2)ccc1O (stereo partly drawn) [Example 92, N-[5-((2S)-3-{1-[4-(2,4-Dioxo-thiazolidin-5-ylmethyl)-phenyl]-piperidin-4-ylamino}-2-hydroxy-propoxy)-2-hydroxy-phenyl]-methanesulfonamide] | 1.1 | > 70 °C (dec.)
CCOC(=O)CC[C@H](NC(=O)c1ccc(N2CCC(NC[C@H](O)c3ccc(O)c(NS(C)(=O)=O)c3)CC2)cc1)C(=O)OCC [Example 192, Diethyl(2S)-2-[(4-{4-[((2R)-2-hydroxy-2-{4-hydroxy-3-[(methylsulfonyl)amino]phenyl}ethyl)amino]-1-piperidinyl}benzoyl)amino]pentanedioate] | 0.97 | > 75 °C (dec.)
CS(=O)(=O)Nc1cc([C@@H](O)CNC2CCN(c3ccc(NC(=O)CCC4CCCC4)cc3)CC2)ccc1O [Example 393, 3-Cyclopentyl-N-(4-{4-[((2R)-2-hydroxy-2-{4-hydroxy-3-[(methylsulfonyl)amino]phenyl}-ethyl)amino]-1-piperidinyl}phenyl)propanamide] | 1 | 82 to 90 °C
CCOC(=O)CNC(=O)c1ccc(N2CCC(NC[C@H](O)c3ccc(O)c(NS(C)(=O)=O)c3)CC2)cc1 [Example 196, Ethyl[(4-{4-[((2R)-2-hydroxy-2-{4-hydroxy-3-[(methylsulfonyl)amino]phenyl}ethyl)amino]-1-piperidinyl}benzoyl)amino]acetate] | 1.1 | > 140 °C (dec.)
CCCCN(Cc1nnn[nH]1)C(=O)c1ccc(N2CCC(NC[C@H](O)c3ccc(O)c(NS(C)(=O)=O)c3)CC2)cc1 [Example 213, N-Butyl-4-{4-[((2R)-2-hydroxy-2-{4-hydroxy-3-[(methylsulfonyl)amino]phenyl}-ethyl)amino]-1-piperidinyl}-N-(1H-tetraazol-5-ylmethyl)benzamide] | 0.97 | 168 to 170 °C
CS(=O)(=O)Nc1cc([C@@H](O)CNC2CCN(c3ccc(C(=O)NOCc4ccccc4)cc3)CC2)ccc1O [Example 191, N-Benzyloxy-4-{4-[(2R)-2-hydroxy-2-(4-hydroxy-3-methanesulfonylamino-phenyl)-ethylamino]-piperidin-1-yl}-benzamide] | 1 | > 70 °C (dec.)
CS(=O)(=O)Nc1cc(C(O)CNC2CCN(c3ccc(C=C4SC(=O)NC4=O)cc3F)CC2)ccc1O (centres unmarked) [Example 71, N-[5-(2-{1-[4-(2,4-Dioxo-thiazolidin-5-ylidenemethyl)-2-fluoro-phenyl]-piperidin-4-ylamino}-1-hydroxy-ethyl)-2-hydroxy-phenyl]-methanesulfonamide] | 1.2 | > 225 °C
O=C1NC(=O)C(Cc2ccc(N3CCC(NC[C@H](O)COc4cccc5[nH]c(=O)[nH]c45)CC3)cc2)S1 (stereo partly drawn) [Example 80, 5-(4-{4-[(2S)-2-Hydroxy-3-(2-oxo-2,3-dihydro-1H-benzoimidazol-4-yloxy)-propylamino]-piperidin-1-yl}-benzyl)-thiazolidine-2,4-dione] | 1.1 | 173 to 175 °C (dec.)
CC(C)C[C@@H](CO)NC(=O)c1ccc(N2CCC(NC[C@H](O)c3ccc(O)c(NS(C)(=O)=O)c3)CC2)cc1 [Example 211, 4-{4-[((2R)-2-Hydroxy-2-{4-hydroxy-3-[(methylsulfonyl)amino]phenyl}ethyl)amino]-1-piperidinyl}-N-[(1S)-1-(hydroxymethyl)-3-methylbutyl]benzamide] | 1 | 120 to 122 °C
CCCC(=O)Nc1ccc(N2CCC(NC[C@H](O)COc3cccc4[nH]c(=O)[nH]c34)CC2)cc1 [Example 386, N-{4-[4-({(2S)-2-Hydroxy-3-[(2-oxo-2,3-dihydro-1H-benzimidazol-4-yl)oxy]propyl}-amino)-1-piperidinyl]phenyl}butanamide] | 0.89 | 190 to 201 °C
O=C1NC(=O)C(Cc2ccc(N3CCC(NC[C@H](O)c4cccnc4)CC3)cc2)S1 (stereo partly drawn) [Example 136, 5-{4-[4-((2R)-2-Hydroxy-2-pyridin-3-yl-ethylamino)-piperidin-1-yl]-benzyl}-thiazolidine-2,4-dione] | 0.9 | 87 °C (dec.)
COC(=O)[C@H](CC(C)C)NC(=O)c1ccc(N2CCC(NCC(O)c3ccc(O)c(NS(C)(=O)=O)c3)CC2)cc1 (stereo partly drawn) [Example 209, (2S)-2-(4-{4-[2-Hydroxy-2-(4-hydroxy-3-methanesulfonylamino-phenyl)-ethylamino]-piperidin-1-yl}-benzoylamino)-4-methyl-pentanoic acid methyl ester] | 1 | > 90 °C (dec.)
COC(=O)[C@H](Cc1ccccc1)NC(=O)c1ccc(N2CCC(NC[C@H](O)c3ccc(O)c(NS(C)(=O)=O)c3)CC2)cc1 [Example 204, (2S)-2-(4-{4-[(2R)-2-Hydroxy-2-(4-hydroxy-3-methanesulfonylamino-phenyl)-ethylamino]-piperidin-1-yl}-benzoylamino)-3-phenyl-propionic acid methyl ester] | 1.2 | > 98 °C (dec.)
O=C1NC(=S)SC1=Cc1ccc(N2CCC(NC[C@H](O)COc3ccccc3)CC2)cc1 [Example 72, 5-{4-[4-((2S)-2-Hydroxy-3-phenoxy-propylamino)-piperidin-1-yl]-benzylidene}-2-thioxo-thiazolidin-4-one] | 0.68 | > 220 °C (dec.)
